# Test results taken from ChEMBL document CHEMBL1145613, “Tubulysin analogs incorporating desmethyl and dimethyl tubuphenylalanine derivatives” (Bioorg Med Chem Lett, 2008).
# Key:
# [1] = Inhibition of rat brain tubulin polymerization
# 1A9 = test: Antiproliferative activity against human 1A9 cells; assay type: functional, cell-based
smiles,measurement,setting,value
CC[C@H](C)[C@H](NC(=O)[C@@H]1CCCN1C)C(=O)N[C@H](CC(=O)c1nc(C(=O)N[C@H](CCC(=O)O)Cc2ccccc2)cs1)C(C)C,IC50,[1],11 µM
same,IC50,1A9,50 µM
CC[C@H](C)[C@H](NC(=O)[C@H]1CCCCN1)C(=O)N[C@H](CC(=O)c1nc(C(=O)N[C@H](CCC(=O)O)Cc2ccccc2)cs1)C(C)C,IC50,[1],4.4 µM
same,IC50,1A9,> 50 µM
CC[C@H](C)[C@H](NC(=O)[C@H]1CCCN1C)C(=O)N[C@H](CC(=O)c1nc(C(=O)N[C@@H](Cc2ccccc2)CC(C)(C)C(=O)O)cs1)C(C)C,IC50,[1],2.7 µM
same,IC50,1A9,3.2 µM
CC[C@H](C)[C@H](NC(=O)[C@H]1CCCCN1C)C(=O)N[C@H](CC(=O)c1nc(C(=O)N[C@@H](Cc2ccccc2)CC(C)(C)C(=O)O)cs1)C(C)C,IC50,[1],1.5 µM
same,IC50,1A9,0.3 µM
CC[C@H](C)[C@H](NC(=O)[C@@H]1CCCCN1C)C(=O)N[C@H](CC(=O)c1nc(C(=O)N[C@H](CCC(=O)O)Cc2ccccc2)cs1)C(C)C,IC50,[1],13 µM
same,IC50,1A9,> 50 µM
CC[C@H](C)[C@H](NC(=O)[C@H]1CCCN1C)C(=O)N[C@H](CC(=O)c1nc(C(=O)N[C@H](CCC(=O)O)Cc2ccccc2)cs1)C(C)C,IC50,[1],2.3 µM
same,IC50,1A9,24 µM
CC[C@H](C)[C@H](NC(=O)[C@@H]1CCCCN1)C(=O)N[C@H](CC(=O)c1nc(C(=O)N[C@H](CCC(=O)O)Cc2ccccc2)cs1)C(C)C,IC50,[1],> 20 µM
same,IC50,1A9,> 50 µM
CC[C@H](C)[C@H](NC(=O)[C@H]1CCCN1)C(=O)N[C@H](CC(=O)c1nc(C(=O)N[C@H](CCC(=O)O)Cc2ccccc2)cs1)C(C)C,IC50,[1],> 20 µM
same,IC50,1A9,> 50 µM
CC[C@H](C)[C@H](NC(=O)[C@H]1CCCCN1C)C(=O)N[C@H](CC(=O)c1nc(C(=O)N[C@H](CCC(=O)O)Cc2ccccc2)cs1)C(C)C,IC50,[1],0.6 µM
same,IC50,1A9,4 µM
CC[C@H](C)[C@H](NC(=O)[C@@H]1CCCN1)C(=O)N[C@H](CC(=O)c1nc(C(=O)N[C@H](CCC(=O)O)Cc2ccccc2)cs1)C(C)C,IC50,[1],> 20 µM
same,IC50,1A9,> 50 µM
COc1ccc(/C=C\c2cc(OC)c(OC)c(OC)c2)cc1O [COMBRETASTATIN A4],IC50,1A9,0.0036 µM
CN[C@H](C(=O)N[C@H](C(=O)N(C)[C@H](/C=C(\C)C(=O)O)C(C)C)C(C)(C)C)C(C)(C)c1ccccc1 [TALTOBULIN],IC50,[1],0.7 µM
same,IC50,1A9,0.0003 µM
CC[C@H](C)[C@H](NC(=O)[C@H]1CCCCN1C)C(=O)N(COC(=O)CC(C)C)[C@H](C[C@@H](OC(C)=O)c1nc(C(=O)N[C@@H](Cc2ccc(O)cc2)C[C@H](C)C(=O)O)cs1)C(C)C [TUBULYSIN-A],IC50,[1],0.75 µM
